Test results taken from PMC6201908, “Affinity, potency, efficacy, and selectivity of neurokinin A analogs at human recombinant NK2 and NK1 receptors” (PLoS ONE, 2018).
Where two headings read alike, the source gives them in different places. Non-standard residues stand in square brackets, D forms with d. Residues, ends and D or L forms follow the SMILES beside them. No end group written: not given here. NMeL = CN[C@@H](CC(C)C)C(=O)O; βAla = NCCC(=O)O

Experiments:
[1] = molecular target: T1, human recombinant NK2 receptors (Homo sapiens, UniProt P21452); assay: Displacement of [^125I]-NKA binding to CHO-hNK2 membranes
T1 sequence (P21452 1-398): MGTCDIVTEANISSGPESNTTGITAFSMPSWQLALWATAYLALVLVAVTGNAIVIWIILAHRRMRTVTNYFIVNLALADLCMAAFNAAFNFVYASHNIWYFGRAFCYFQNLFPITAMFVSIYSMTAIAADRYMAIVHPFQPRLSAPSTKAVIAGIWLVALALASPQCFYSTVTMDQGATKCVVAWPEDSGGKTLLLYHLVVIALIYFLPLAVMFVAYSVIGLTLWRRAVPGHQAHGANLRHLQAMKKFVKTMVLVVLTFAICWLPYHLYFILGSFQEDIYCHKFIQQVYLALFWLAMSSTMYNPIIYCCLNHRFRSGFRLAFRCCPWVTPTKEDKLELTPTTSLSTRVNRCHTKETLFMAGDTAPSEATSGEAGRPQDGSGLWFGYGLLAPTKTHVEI

[2] = molecular target: T2, human recombinant NK1 receptors (Homo sapiens, UniProt P25103); assay: cell-based
Description: (§1) Human recombinant NK2 and NK1 receptors were generated using stably transfected CHO cells (CHO-hNK2 and CHO-hNK1, respectively). Human NK2 or NK1 receptor expressing vectors from Genecopeia (Rockville, USA) were transfected in CHO cells using the standard FuGENE protocol and cells were selected using 450 μg/mL geneticin (G418). Clones expressing the receptors were selected by functional coupling to calcium using FLIPR and a single clone for each receptor subtype was selected for expansion and stable cell line generation. Cells were cultured in a humidified incubator with 5% CO2 in F12K medium containing 10% heat inactivated FBS and 450 μg/mL geneticin and passaged on reaching 80–90% confluence.
(§2) The agonist efficacy of the test compounds at recombinant human NK1 or NK2 receptors expressed in CHO cells was assessed by measuring the intracellular calcium response using the calcium-sensitive dye Fluo-4 AM (Eugene, OR, USA) and a Fluorometric Imaging Plate Reader (FLIPR, Molecular Devices, CA, USA). CHO-hNK1 and CHO-hNK2 cells were seeded into black walled clear-bottom 384-well plates at a density of 10,000 and 15,000 cells per well in 50 μL culture media, respectively, and grown overnight at 37°C in a humidified CO2-incubator. Cells were washed in washing buffer using an EMBLA 384 plate washer, leaving 20 μL of buffer per well after the final aspiration. Cells were then incubated at 37°C with the cytoplasmic Ca^2+ indicator Fluo-4 AM (final concentration 1 μM) in assay buffer (20 mM HEPES, 145 mM NaCl, 5 mM KCl, 5.5 mM glucose, 1 mM MgCl2 and 2 mM CaCl2, pH 7.4, 0.05% Pluronic F-127 and 0.1% BSA) containing 2.5 mM probenecid for 45–60 min (cell loading). Cells were then washed 3 times in washing buffer (20 mM HEPES, 145 mM NaCl, 5 mM KCl, 5.5 mM glucose, 1 mM MgCl2 and 2 mM CaCl2, pH 7.4 and 2.5 mM probenecid) using an EMBLA 384 plate washer, leaving 30 μL of buffer in each well after the last wash. Loaded cell plates were transferred to the FLIPR and calcium responses were monitored as described below. […] Concentration response curves of test compounds were generated in duplicate on at least two different occasions from the same stock solutions. Test solutions were prepared from 10 mM stock solutions in DMSO and 1 μL of each solution was stamped into V-bottom assay plates containing 49 μL assay buffer. The final concentration of DMSO was 0.5% in each well.

[3] = molecular target: T1, human recombinant NK2 receptors; assay: cell-based; settings: for NK1/NK2 ratio of EC50s for intracellular calcium response: NK1 EC50 / NK2 EC50
Description: as §1, §2

[4] = molecular target: T2, human recombinant NK1 receptors; assay: Displacement of [^3H]-Septide binding to CHO-hNK1 membranes (septide site); settings: for [^3H]-Septide binding Slope: Hill slope of displacement curve
Description: Protein expression was induced by addition of 5 mM sodium butyrate to the culture medium. […] The cell suspension was collected, placed on ice and centrifuged for 5 min at 4°C and 1200 rpm in a Beckman GS6R centrifuge. After removal of the supernatant the cell pellet was washed and collected by re-suspension in PBS and centrifugation. The final pellet was weighed and frozen at -80°C until use. Frozen pellets were thawed and homogenized in 10 volumes (w/v) of membrane preparation buffer (50 mM HEPES pH 7.4, 1 mM EDTA, 50 μg/mL bacitracin and protease inhibitors) using a Polytron Ultraturrax (twice for 15 s per cycle). The homogenate was centrifuged for 20 min at 4°C and 18500 rpm in a SL-50T Sorvall rotor and the pellet was re-suspended in membrane preparation buffer and re-homogenized as before. After centrifugation for 20 min at 4°C and 18500 rpm, the pellets were re-suspended in 5 volumes of membrane preparation buffer and divided into aliquots before freezing at -80°C. Protein concentration was determined using BioRad Protein Assay (Milan, Italy) with a BSA standard curve. Stock solutions of test compounds (10 mM) were prepared in DMSO and stored at -20°C until use. […] The goodness of fit between One-Site and Two-Site models was examined using Akaike's Information Corrected Criteria (AICC; [23]) in SAS v9.4 (SAS Institute, Cary NC) in order to select the best model for the data generated. […] Data from displacement experiments were plotted as the log [inhibitor concentration] (X axis) versus response expressed as TB in cpm (Y axis).

[5] = molecular target: T2, human recombinant NK1 receptors; assay: cell-based; format: cell-based
Description: (§3) CHO-hNK2 and CHO-hNK1 cells were transiently transfected with a CRE-LUC reporter construct using Lipofectamine 2000. At 24 h post-transfection, cells were plated at a density of 20,000 cells/well in a 96-well culture plate. […] Luciferase expression was measured after 5 h of incubation at 37°C (in the presence of 5% CO2) by adding Firefly Luciferase reagent, followed by Renilla Luciferase reagent. Luminescence was measured by using an Envision Multilabel flash lamp reader after addition of the first and second reagents. Data were normalized by calculating the ratio of the Firefly luminescence from the CRE reporter to the Renilla luminescence from the control Renilla Luciferase vector.

[6] = molecular target: T1, human recombinant NK2 receptors; assay: cell-based; settings: for EC50: CHO-hNK2 cells
Description: as §3

NK2 receptor = molecular target: T3, NK2 receptor (Homo sapiens, UniProt P21452); assay: [125I]-NKA displacement
T3 chain: T1 sequence (P21452 1-398)

[7] = CHO-hNK1 cells, % of maximal response observed with substance P, mean ± SD
[8] = CHO-hNK2 cells, % of maximal response observed with NKA, mean ± SD
[9] = Intracellular Ca^2+ pEC50, CHO-hNK2 cells, mean ± SD
[10] = 5.0 nM [^3H]-Septide, CHO-hNK1 membranes 20 μg/well, 23°C, 1 h, mean ± SD
[11] = 5.0 nM [^3H]-Septide, 23°C, 1 h, mean ± SD
[12] = mean ± SD, read-out: cAMP stimulation pEC50 (converted)
[13] = read-out: NK2 EC50 cAMP stimulation
[14] = CHO-hNK1 cells, mean ± SD, read-out: cAMP stimulation pEC50 (converted)
[15] = CHO-hNK1 cells, read-out: NK1 EC50 cAMP stimulation
[16] = Intracellular Ca^2+ pEC50, CHO-hNK1 cells, mean ± SD
[17] = NK1 EC50 intracellular calcium response, CHO-hNK1 cells
[18] = NK2 EC50 intracellular calcium response, CHO-hNK2 cells
[19] = 5.0 nM [^3H]-Septide, CHO-hNK1 membranes 20 μg/well, 23°C, 1 h, mean ± SD, read-out: [^3H]-Septide binding pKi (converted)
[20] = displacement of [^3H]-Septide binding, read-out: NK1 [^3H]-Septide Ki
[21] = [^125I]-NKA binding pKi, 0.1 nM [^125I]-NKA, CHO-hNK2 membranes 6 μg/well, 23°C, 3 h, mean ± SD

T2 sequence (P25103 whole entry): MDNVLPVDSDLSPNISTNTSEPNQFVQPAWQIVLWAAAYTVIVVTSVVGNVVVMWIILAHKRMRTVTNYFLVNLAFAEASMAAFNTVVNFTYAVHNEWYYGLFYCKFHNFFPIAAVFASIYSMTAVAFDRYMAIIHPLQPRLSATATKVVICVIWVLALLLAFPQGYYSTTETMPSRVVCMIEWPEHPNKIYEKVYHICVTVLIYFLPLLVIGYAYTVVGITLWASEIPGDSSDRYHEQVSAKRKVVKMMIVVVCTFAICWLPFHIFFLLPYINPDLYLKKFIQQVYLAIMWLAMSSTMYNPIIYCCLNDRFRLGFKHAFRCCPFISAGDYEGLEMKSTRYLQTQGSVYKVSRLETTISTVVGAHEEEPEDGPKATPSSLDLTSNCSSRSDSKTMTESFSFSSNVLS

Row | Molecule | Intracellular Ca^2+ % Max [2, 7] [%] | Intracellular Ca^2+ pEC50 ([2]; CHO-hNK1 cells, mean ± SD) | Intracellular Ca^2+ % Max [3, 8] [%] | EC50 [3, 9] [nM] | NK1/NK2 ratio of EC50s for intracellular calcium response [3] | [^3H]-Septide binding pKi [4, 10] | [^3H]-Septide binding Slope [4, 11] | cAMP stimulation % Max [6] [%] | EC50 [6, 12] [nM] | EC50 [6, 13] [nM] | cAMP stimulation % Max [5] [%] | EC50 [5, 14] [nM] | EC50 [5, 15] [nM] | Intracellular Ca^2+ % Max [2] [%] | EC50 [2, 16] [nM] | EC50 [2, 17] [nM] | Intracellular Ca^2+ % Max [3] [%] | EC50 [3, 18] [nM] | Ki [4, 19] [nM] | Ki [4, 20] [nM] | further results
1 | CSCC[C@H](NC(=O)[C@H](CC(C)C)N(C)C(=O)CNC(=O)[C@@H](NC(=O)[C@H](Cc1ccccc1)NC(=O)[C@H](CCCCN)NC(=O)[C@@H](N)CC(=O)O)C(C)C)C(N)=O [[Lys^5,MeLeu^9]-NKA(4–10), Asp-Lys-Phe-Val-Gly-(NMe-Leu)-Met-NH2] | 106.7 ± 5.7 | 9.02 ± 0.39 | 88.2 ± 11.4 | 0.145 | 7 | 7.30 ± 0.16 | -0.89 ± 0.01 |  |  |  |  |  |  |  |  |  |  |  |  |  | NK1/NK2 ratio of Ki values [1]: 251; [^125I]-NKA binding Slope [1]: -0.84 ± 0.06; [^125I]-NKA binding pKi [1]: 9.70 ± 0.16
2 | CSCC[C@H](NC(=O)[C@H](CC(C)C)NC(=O)CNC(=O)[C@@H](NC(=O)[C@H](Cc1ccccc1)NC(=O)[C@H](CO)NC(=O)[C@H](CC(=O)O)NC(=O)[C@@H](NC(=O)[C@H](CCCCN)NC(=O)[C@@H](N)Cc1c[nH]cn1)[C@@H](C)O)C(C)C)C(N)=O [NKA, reference compound] |  |  |  |  |  |  |  |  |  |  |  |  |  |  |  |  |  |  |  |  | cAMP stimulation % Max [5, 7]: 100.5 ± 13.6%
3 | CSCC[C@H](NC(=O)[C@H](CC(C)C)NC(=O)CCNC(=O)[C@@H](NC(=O)[C@H](Cc1ccccc1)NC(=O)[C@H](CO)NC(=O)[C@@H](N)CC(=O)O)C(C)C)C(N)=O [[β-Ala^8]-NKA(4–10), Asp-Ser-Phe-Val-[β-Ala]-Leu-Met-NH2] (H-DSFV[βAla]LM-NH2) |  |  |  | 0.871 |  |  |  | 84.6 ± 13.1 | 0.0234 | 0.023 | 97.3 ± 24.8 | 5.62 | 5.62 | 106.0 ± 11.5 | 46.8 | 46.8 | 102.2 ± 7.4 | 0.86 | 2090 | 2090 | 
4 | CCCC[C@H](NC(=O)[C@H](CC(C)C)N(C)C(=O)CNC(=O)[C@@H](NC(=O)[C@H](Cc1ccccc1)NC(=O)[C@H](CCCCN)NC(=O)[C@@H](N)CC(=O)O)C(C)C)C(N)=O [[Lys^5,MeLeu^9,Nle^10]-NKA(4-10), Asp-Lys-Phe-Val-Gly-Leu(NMe)-Nle-NH2] |  |  |  | 0.148 |  |  |  | 107.4 ± 7.36 | 0.024 | 0.024 | 94.3 ± 21.6 | 1.78 | 1.78 | 107.6 ± 3.1 | 15.5 | 15.5 | 101.4 ± 3.0 | 0.15 | 589 | 589 | Ki ([1]; NK2 [^125I]-NKA Ki, displacement of [^125I]-NKA binding): 0.87 nM; Ki [1, 21]: 0.871 nM; Fold more selective for NK2 over septide site of NK1 receptor compared with NKA (binding) ([1]; from Ki ratios): more than 28 fold; Fold more selective than NKA for activation of NK2 over NK1 receptors (calcium) ([3]; from EC50 ratios): approximately 100 fold
5 | CSCC[C@H](NC(=O)[C@H](CC(C)C)N(C)C(=O)CNC(=O)[C@@H](NC(=O)[C@H](Cc1ccccc1)NC(=O)[C@H](CCCNC(=N)N)NC(=O)[C@@H](N)CC(=O)O)C(C)C)C(N)=O [[Arg^5,MeLeu^9]-NKA(4-10), Asp-Arg-Phe-Val-Gly-(NMe-Leu)-Met-NH2] (H-DRFVG[NMeL]M-NH2) | 99.9 ± 13.3 | 9.52 ± 0.29 | 111.5 ± 3.7 | 0.162 | 2 | 7.68 ± 0.16 | -0.75 ± 0.03 |  |  |  |  |  |  |  |  |  |  |  |  |  | [^125I]-NKA binding Slope ([1]; Hill slope of displacement curve, 0.1 nM [^125I]-NKA, 23°C, 3 h, mean ± SD): -0.90 ± 0.07; NK1/NK2 ratio of Ki values ([1]; NK1 [^3H]-Septide Ki / NK2 [^125I]-NKA Ki): 174; Ki [1, 21]: 0.126 nM
6 | DSFVGLM-NH2 [NKA(4-10)] |  |  |  |  |  |  |  |  |  |  |  |  |  |  |  |  |  |  |  |  | Ki (NK2 receptor): 2.3 nM
